The text below walks through data of ChEMBL document CHEMBL1132876, “Examination of N-hydroxylation as a prerequisite mechanism of nitric oxide synthase inactivation” (Bioorg Med Chem Lett, 2000).

The Ki is the equilibrium dissociation constant of an inhibitor or competing ligand from its target. A higher Ki goes with weaker binding. In general, kinact refers to the rate constant of inactivation at saturating inhibitor.

Assay [1] deals with T1, Nitric oxide synthase, inducible (Mus musculus, UniProt P29477).
T1 sequence (P29477 whole entry): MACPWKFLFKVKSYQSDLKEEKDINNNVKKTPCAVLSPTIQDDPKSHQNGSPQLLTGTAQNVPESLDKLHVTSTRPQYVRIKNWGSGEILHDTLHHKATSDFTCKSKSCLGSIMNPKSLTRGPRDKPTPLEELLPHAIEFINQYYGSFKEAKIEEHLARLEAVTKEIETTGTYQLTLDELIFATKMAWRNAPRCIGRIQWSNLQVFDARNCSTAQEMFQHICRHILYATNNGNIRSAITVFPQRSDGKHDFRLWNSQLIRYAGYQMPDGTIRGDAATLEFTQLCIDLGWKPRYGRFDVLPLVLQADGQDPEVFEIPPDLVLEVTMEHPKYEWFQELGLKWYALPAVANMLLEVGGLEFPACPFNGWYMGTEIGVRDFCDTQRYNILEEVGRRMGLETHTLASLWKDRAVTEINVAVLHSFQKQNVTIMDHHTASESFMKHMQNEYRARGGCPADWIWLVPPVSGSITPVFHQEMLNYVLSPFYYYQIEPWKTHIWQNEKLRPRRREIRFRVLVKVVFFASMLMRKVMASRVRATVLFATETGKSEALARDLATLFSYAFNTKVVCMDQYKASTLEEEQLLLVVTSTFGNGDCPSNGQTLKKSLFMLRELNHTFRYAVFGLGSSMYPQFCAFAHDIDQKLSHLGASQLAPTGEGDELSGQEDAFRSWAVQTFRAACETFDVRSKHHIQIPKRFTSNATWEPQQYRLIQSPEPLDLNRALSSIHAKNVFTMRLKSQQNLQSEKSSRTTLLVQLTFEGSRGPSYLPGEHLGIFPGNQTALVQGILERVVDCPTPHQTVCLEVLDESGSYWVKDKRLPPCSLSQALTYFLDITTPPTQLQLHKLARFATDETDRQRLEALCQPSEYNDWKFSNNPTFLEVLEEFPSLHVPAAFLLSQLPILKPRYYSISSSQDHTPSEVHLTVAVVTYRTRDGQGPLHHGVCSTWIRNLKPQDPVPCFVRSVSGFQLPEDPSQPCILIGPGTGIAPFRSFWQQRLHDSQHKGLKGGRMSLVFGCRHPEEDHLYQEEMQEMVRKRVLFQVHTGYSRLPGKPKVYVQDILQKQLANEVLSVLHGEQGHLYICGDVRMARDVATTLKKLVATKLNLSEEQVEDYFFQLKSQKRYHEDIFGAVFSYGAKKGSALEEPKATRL
Put plainly: The compound was tested for competitive antagonist of Nitric oxide synthase. It is filed as functional.

Assay [2] deals with T2, Nitric oxide synthase, inducible (Mus musculus) (UniProt P29477).
T2 sequence (whole entry): T1 sequence (P29477 whole entry)
Description: Pseudo-first order inactivation rate constant against nitric oxide synthase was determined

The target in assay [3] is T1, Nitric oxide synthase, inducible. Nature of the assay: Compound was tested for competitive antagonist of Nitric oxide synthase. The assay is classed as functional.

Regarding `CC(=NO)NCCC[C@H](N)C(=O)O`, in assay [1], the Ki was determined as 37.7 µM. Compound `CC(=NO)NCCCC[C@H](N)C(=O)O` displayed a Ki in assay [1] of 41.1 µM. For `CC(=N)NCCCC[C@H](N)C(=O)O` [L-NIL], in assay [1], the inhibition constant (Ki) was 2.16 µM. Also, the kinact in assay [2] is 0.35 min⁻¹. `CC(=N)NCCC[C@H](N)C(=O)O` [L-NIO] displayed a Ki in assay [3] of 1.42 µM. The kinact in assay [2] was 0.16 min⁻¹.
